Data on 9 compounds can be found in patent US12611402B2, “Compounds and their use for the treatment of ALPHA1-antitrypsin deficiency” (CENTESSA PHARMACEUTICALS (UK) LIMITED, priority 2019, dated 2026).

Assay [1] addresses T1, human Z A1AT (Homo sapiens, UniProt P01009, E366K). In words: Circulating human Z A1AT levels in huZ mouse (plasma ELISA). It counts as in vivo. Details: expressed in transfected cells; host or cells: transgenic huZ mouse (line Z11.03, C57Bl/6), expressed in liver, measured in plasma. The conditions noted are these: 5, 15 or 50 mg/kg twice a day by oral gavage for 14 days; plasma days 12, 13 and 14 vs basal. From the text:
The huZ mouse (also referred to as the PiZZ mouse) is a transgenic mouse strain that contains multiple copies of the Z variant of the human A1AT gene, developed by two separate groups (Dycaico et al Science (1988) 242:1409-12) and Carlson et al J. Clin Invest (1989) 83:1183-90). HuZ mice are on a C57Bl/6 background and express the human Z A1AT protein in liver tissue. The mice used in this study are from the progeny of Carlson and colleagues (transgenic line Z11.03). […]
HuZ mice (n=4/group; male or female) with basal human Z A1AT plasma levels of between 200-600 μg/ml were treated with either vehicle or the compounds of Examples 1 or 17 at 5, 15 or 50 mg/kg twice a day by oral gavage for 14 consecutive days. […] Human Z A1AT levels in mouse plasma samples were measured by ELISA (Human Serpin A1/α1 antitrypsin duo set ELISA, R& D Systems, DY1268) per manufacturer's instructions.
Briefly, a 96 well plate was coated with human A1AT capture antibody overnight at room temperature (1:180 dilution from stock, 100 μl final volume/well). […] After which, 50 μl stop solution (2M H2SO4) was added and optical density (OD) of each well was read at 450 nm with 570 nm blank subtracted from each well using a microplate reader. […]

Another assay deals with T2, human Siiyama A1AT (Homo sapiens, UniProt P01009, S77F).
T2 construct: expressed in transfected cells; host or cells: HEK-Siiyama cells (transfected HEK-EBNA)
In words: A1AT cell secretion assay using HEK-Siiyama cells (ELISA). It counts as cell-based. The conditions noted are these: 48 h; for secretion of Siiyama A1AT from HEK-Siiyama cells: 1 or 10 μM. As for the experimental part:
(§1) HEK-Siiyama cells, a human embryonic kidney cell line stably transfected with the human Siiyama A1AT gene, were plated into 96 well plates (3.0×10^5 cells/ml with 200 μl of media/well) overnight at 37° C. in a humidified atmosphere containing 5% CO2. Following incubation cells were washed with 200 μl serum-free media three times and media was replaced with serum-free media containing vehicle, 10 μM suberanilohydroxamic acid (SAHA) or a compound of Example 1 (at 1 and 10 μM) in replicates of eight for 48 h in a 37° C. incubator in a final volume of 200 μl. At the end of the incubation step the supernatants were removed from the wells, centrifuged at 1000×g at 4° C. for 10 min and were assayed for human A1AT levels by ELISA (Human Serpin A1/α1-antitrypsin duo set ELISA, R& D Systems, DY1268) per manufacturer's instructions.
(§2) Briefly, a 96 well plate was coated with human A1AT capture antibody overnight at room temperature (1:180 dilution from stock, 100 μl final volume/well). The capture antibody was then removed and wells washed three times with 300 μl wash buffer (0.05% Tween 20 in PBS) and then 200 μl reagent diluent (25% Tween 20 in PBS) was incubated in each well for 1 h at room temperature. Diluted samples, standards (125, 250, 500, 1000, 2000, 4000 and 8000 pg/ml A1AT) or blanks were then added to each well in duplicate and the plates were covered with a plate sealer and left at room temperature for 2 h. […] After which, 50 μl stop solution (2M H2SO4) was added and optical density (OD) of each well was read at 450 nm with 570 nm blank subtracted from each well using a microplate reader. A 4 parameter logistic curve was constructed using GraphPad Prism 7 and A1AT concentrations were determined in each sample by interpolation from a standard curve and multiplying by the appropriate dilution factor.
The amount of human Siiyama A1AT secreted from transfected HEK-EBNA cells into the media was measured by ELISA. […]
(In general: ELISA stands for enzyme-linked immunosorbent assay.)

A further assay has as its target T3, human M A1AT (Homo sapiens, UniProt P01009).
T3 construct: expressed in transfected cells; host or cells: HEK-M cells (transfected HEK-EBNA)
In words: A1AT cell secretion assay using HEK-M cells (ELISA). It counts as cell-based. The settings on record: 10 μM, 48 h. As for the experimental part:
as §1, with “HEK-M” for “HEK-Siiyama”, “M A1AT,” for “the human Siiyama A1AT gene,”, “Examples 1-16” for “Example 1 (at 1 and 10 μM)”, “six” for “eight”, “A1/α1 antitrypsin” for “A1/α1-antitrypsin”
Briefly, a 96 well plate was coated with human A1AT capture antibody overnight at room temperature (1:180 dilution from stock, 100 μl final volume/well). The capture antibody was then removed and wells washed three times with 300 μl wash buffer (0.05% Tween 20 in PBS) and then 200 μl reagent diluent ([…]) was incubated in each well for 1 h at room temperature. Diluted samples, standards (125, 250, 500, 1000, 2000, 4000 and 8000 pg/ml A1AT) or blanks were then added to each well in duplicate and the plates were covered with a plate sealer and left at room temperature for 2 h. At the end of the sample incubation step, samples were removed and all wells washed as previously and 100 μl detection antibody (1:180 dilution from stock) was added to each well and incubated for a further 2 h at room temperature. Following incubation with detection antibody, supernatant was removed and wells were washed as previously and 100 μl streptavidin-HRP solution (1:200 dilution from stock) was added to each well for 20 min in the dark. After which, 50 μl stop solution (2M H2SO4) was added and optical density (OD) of each well was read at 450 nm with 570 nm blank subtracted from each well using a microplate reader. A 4 parameter logistic curve was constructed using GraphPad Prism 7 and A1AT concentrations were determined in each sample by interpolation from a standard curve and multiplying by the appropriate dilution factor.
The amount of human M A1AT secreted from transfected HEK-EBNA cells into the media was measured by ELISA. SAHA at 10 μM was used a positive control for all in vitro A1AT secretion experiments.

Assay [2] addresses T1, human Z A1AT. The assay can be described thus: A1AT cell secretion assay using HEK-Z cells (ELISA). The conditions noted are these: 48 h, supernatant ELISA. It counts as cell-based. Details: expressed in transfected cells; host or cells: HEK-Z cells (transfected HEK-EBNA). As for the experimental part:
HEK-Z cells, a human embryonic kidney cell line stably transfected with the human Z A1AT gene, were plated into 96 well plates (3.0×10^5 cells/ml with 200 μl of media/well) overnight at 37° C. in a humidified atmosphere containing 5% CO2. Following incubation cells were washed with 200 μl serum-free media three times and media was replaced with treatments in quadruplicate using serum-free media containing vehicle, 10 μM suberanilohydroxamic acid (SAHA) or the compounds of Examples 1-18 (at concentrations of 10, 33, 100 and 333 nM) for 48 h in a 37° C. incubator in a final volume of 200 μl. At the end of the incubation step the supernatants were removed from the wells, centrifuged at 1000×g at 4° C. for 10 min and were assayed for human A1AT levels by ELISA (Human Serpin A1/α1-antitrypsin duo set ELISA, R& D Systems, DY1268) per manufacturer's instructions.
as §2
The amount of human A1AT secreted from transfected HEK-EBNA cells into the media was measured by ELISA. […]

T2 sequence (P01009 25-418 S77F): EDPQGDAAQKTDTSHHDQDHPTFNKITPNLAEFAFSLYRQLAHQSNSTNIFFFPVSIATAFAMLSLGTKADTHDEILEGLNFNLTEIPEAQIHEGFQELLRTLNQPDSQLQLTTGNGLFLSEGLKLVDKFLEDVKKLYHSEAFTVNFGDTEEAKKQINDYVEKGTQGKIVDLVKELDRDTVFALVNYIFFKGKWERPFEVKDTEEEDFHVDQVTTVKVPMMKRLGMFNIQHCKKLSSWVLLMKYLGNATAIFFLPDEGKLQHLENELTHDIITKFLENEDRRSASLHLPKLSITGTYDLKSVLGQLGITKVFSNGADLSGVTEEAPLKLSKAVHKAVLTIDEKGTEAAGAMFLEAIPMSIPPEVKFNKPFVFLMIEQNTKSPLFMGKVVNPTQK
T1 sequence (P01009 25-418 E366K): as the sequence (P01009 25-418 S77F) above, with F53S, E342K counted along it
T3 sequence (P01009 25-418): as the sequence (P01009 25-418 S77F) above, with F53S counted along it

Take `O=C(O)C1CCN(S(=O)(=O)c2cccc3cccnc23)CC1` [Example 1, 1-(Quinolin-8-ylsulfonyl)piperidine-4-carboxylic acid]: on human Z A1AT [1], the “secretion of human Z A1AT compared to baseline levels in huZ mice” value is “stimulated secretion”. On human Siiyama A1AT, the “secretion of Siiyama A1AT from HEK-Siiyama cells” value was “did not stimulate secretion”. In addition, the “secretion of human M A1AT from HEK-M cells” value (shortened to “secretion of human M A1AT”) on human M A1AT is “did not lead to an increase”. For `O=C(O)C1CCN(S(=O)(=O)c2cccc(Cl)c2)CC1` [Example 3, 1-((3-Chlorophenyl)sulfonyl)piperidine-4-carboxylic acid], the “secretion of human M A1AT” value on human M A1AT is listed as “did not lead to an increase”. On to `O=C(O)C1CCN(S(=O)(=O)c2cccc(Cl)c2Cl)CC1` [Example 4, 1-((2,3-Dichlorophenyl)sulfonyl)piperidine-4-carboxylic acid], for which the “secretion of human M A1AT” value at human M A1AT was “did not lead to an increase”. As for `O=C(O)C1CCN(S(=O)(=O)c2ccccc2C(F)(F)F)CC1` [Example 10, 1-((2-(Trifluoromethyl)phenyl)sulfonyl)piperidine-4-carboxylic acid], the “secretion of human M A1AT” value at human M A1AT is “did not lead to an increase”.

Regarding `O=C(O)C1CCN(S(=O)(=O)c2ccc(C(F)(F)F)cc2)CC1` [Example 12, 1-((4-(Trifluoromethyl)phenyl)sulfonyl)piperidine-4-carboxylic add], at human Z A1AT [2], the “Median A1AT increase over vehicle at 300 nM” value (shortened to “Median A1AT increase”) is recorded as 200. For `O=C(O)[C@H]1CCN(S(=O)(=O)c2ccccc2C(F)(F)F)C1` [Example 15, (S)-1-((2-(Trinfluoromethyl)phenyl)sulfonyl)pyrrolidine-3-carboxylic acid], on human Z A1AT [2], the “Median A1AT increase” value stood at 230. As for `O=C(O)[C@H]1CCCN(S(=O)(=O)c2ccccc2C(F)(F)F)C1` [Example 17, (S)-1-((2-(Trinfluoromethyl)phenyl)sulfonyl)piperidine-3-carboxylic acid], the “secretion of human Z A1AT compared to baseline levels in huZ mice” value on human Z A1AT [1] is reported as “stimulated secretion”. Further, the “secretion of Siiyama A1AT from HEK-Siiyama cells” value at human Siiyama A1AT was “did not stimulate secretion”. Besides, the “secretion of human M A1AT” value at human M A1AT is reported as “did not lead to an increase”. The “Median A1AT increase” value on human Z A1AT [2] is on record as 310. In the case of `O=C(O)[C@@H]1CCCN(S(=O)(=O)c2ccccc2C(F)(F)F)C1` [Example 18, (R)-1-((2-(Trifluoromethyl)phenyl)sulfonyl)piperidine-3-carboxylic acid], the “secretion of human M A1AT” value on human M A1AT was “did not lead to an increase”. `O=C(CCCCCCC(=O)Nc1ccccc1)NO` [SAHA, suberanilohydroxamic acid, reference compound]: the “Siiyama A1AT secretion from HEK-Siiyama cells (positive control)” value at human Siiyama A1AT (10 μM) is recorded as “stimulated an increase”.
